# Data as given in patent US20160367578A1, “METHODS AND COMPOSITIONS FOR ERADICATING LEUKEMIC CELLS” (priority 2013, published 2016).
# Columns and labels:
# [1] = test system: Primary MLL-AF9 LKS acute myeloid leukemia cells; test: Co-culture viability with enoxolone, leukemia cells (GFP+/7AAD-); type: cell-based; conditions: 20 hours, 0, 5, 20, 50, 100 and 200 μM
# Experimental: (§1) Primary MLL-AF9^LKS acute myeloid leukemia cells (red bars) were co-cultured with normal BM mononuclear cells (blue bars). Cells in co-culture were exposed to enoxolone for 20 hours (at 0, 5, 20, 50, 100 and 200 μM) and then cell viability was analyzed by flow cytometry (live leukemia cells=GFP+/7AAD−; live normal cells=GFP−/7AAD−).
# normal bone marrow cells = test: Co-culture viability with enoxolone, normal bone marrow cells (myeloid vs. non-myeloid); type: cell-based; design: dose or concentration left out as unconfirmed; conditions: […] μM, 20 hours
# Experimental: as §1
# Cells in co-culture were exposed to enoxolone for 20 hours (at 0, 5, 20, 50, 100 and 200 μM).
smiles,measurement,setting,value
"CC1(C)[C@@H](O)CC[C@]2(C)[C@H]3C(=O)C=C4[C@@H]5C[C@@](C)(C(=O)O)CC[C@]5(C)CC[C@@]4(C)[C@]3(C)CC[C@@H]12 [enoxolone, 18β-glycyrrhetinic acid]",leukemia cell eradication in co-culture with normal BM mononuclear cells,[1],selective leukemia cell eradication
same,toxicity to normal non-myeloid cells,normal bone marrow cells,toxic to normal non-myeloid cells
